Laboratory results reported in patent US5977133A, “Pyridone antibiotic with improved safety profile” (priority 1998, dated 1999).
In brackets after ≈: the same amount, converted by molar mass.

Assays:
Format in all cases: cell-based
[1] = tested on: Enterobacter spp.; experiment: In vitro MIC, agar dilution
[2] = tested on: M. catarrhalis; experiment: In vitro MIC, agar dilution; details: Moraxella catarrhalis
[3] = tested on: M. pneumoniae; experiment: In vitro MIC, agar dilution; details: Mycoplasmoides pneumoniae, read-out: MIC Range
[4] = tested on: E. faecium (CiproS); experiment: In vitro MIC, agar dilution; details: Enterococcus faecium
[5] = tested on: S. epidermidis (CiproR); experiment: In vitro MIC, agar dilution; details: Staphylococcus epidermidis
[6] = tested on: S. aureus (CiproR); experiment: In vitro MIC, agar dilution; details: Staphylococcus aureus
[7] = tested on: B. fragilis; experiment: In vitro MIC, agar dilution; details: Bacteroides fragilis
[8] = tested on: Providencia spp.; experiment: In vitro MIC, agar dilution; details: Providencia spp., 28 isolates
[9] = tested on: H. influenzae; experiment: In vitro MIC, agar dilution; details: Haemophilus influenzae
[10] = tested on: S. epidermidis (CiproS); experiment: In vitro MIC, agar dilution; details: Staphylococcus epidermidis
[11] = tested on: Shigella spp.; experiment: microbe, parasite or virus in culture; details: read-out: MIC Range
[12] = tested on: E. faecalis (VanS); experiment: In vitro MIC, agar dilution; details: Enterococcus faecalis
[13] = tested on: P. aeruginosa (CiproS); experiment: In vitro MIC, agar dilution; details: Pseudomonas aeruginosa, P. aeruginosa (CiproS), 24 isolates
[14] = tested on: S. pyogenes; experiment: In vitro MIC, agar dilution; details: Streptococcus pyogenes
[15] = tested on: Salmonella spp.; experiment: In vitro MIC, agar dilution; details: 23 isolates
Outline: (§1)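 Agar dilution plates were inoculated with ~10^4 CFU per spot by replicator, using 1:100 dilutions (1:10 for slow growers) and incubated at 35–37 °C for 20–24 h. MIC is the lowest concentration giving no growth, where slight haze or sparse colonies count as none, judged against a compound-free BHI agar control.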

[16] = tested on: E. coli; experiment: In vitro MIC, agar dilution; details: Escherichia coli, 25 isolates
Outline: as §1

[17] = tested on: Enterococcus spp. (VanR); experiment: In vitro MIC, agar dilution; details: Enterococcus spp. (VanR), 21 isolates
[18] = tested on: E. faecium (VanS); experiment: In vitro MIC, agar dilution; details: Enterococcus faecium
[19] = tested on: P. aeruginosa (CiproR); experiment: In vitro MIC, agar dilution; details: Pseudomonas aeruginosa
[20] = tested on: N. gonorrhoeae; experiment: In vitro MIC, agar dilution; details: Neisseria gonorrhoeae
[21] = tested on: S. pneumoniae (CiproR); experiment: In vitro MIC, agar dilution; details: Streptococcus pneumoniae, read-out: MIC Range
[22] = tested on: S. pneumoniae (PenR); experiment: In vitro MIC, agar dilution; details: Streptococcus pneumoniae
[23] = tested on: S. pneumoniae (PenS); experiment: In vitro MIC, agar dilution; details: Streptococcus pneumoniae
[24] = tested on: P. mirabilis; experiment: In vitro MIC, agar dilution; details: Proteus mirabilis
[25] = tested on: S. aureus (CiproS); experiment: In vitro MIC, agar dilution; details: Staphylococcus aureus
[26] = tested on: Legionella spp.; experiment: microbe, parasite or virus in culture; details: Legionella
[27] = tested on: E. faecium (CiproR); experiment: In vitro MIC, agar dilution; details: Enterococcus faecium, read-out: MIC Range
[28] = tested on: M. avium; experiment: In vitro MIC, agar dilution; details: Mycobacterium avium, M. avium, 20 isolates
[29] = tested on: Klebsiella spp.; experiment: In vitro MIC, agar dilution

N[C@@H]1[C@H]2CN(c3nc4c(cc3F)c(=O)c(C(=O)O)cn4-c3ccc(F)cc3F)C[C@@H]12 [Trovafloxacin, trovafloxacin]
MIC90 ([1]; Enterobacter): 0.12 µg/mL (≈ 0.288 µM) | MIC50 ([1]; Enterobacter spp., 35 isolates, read-out: MIC50): 0.12 µg/mL (≈ 0.288 µM) | MIC ([1]; Enterobacter spp., 35 isolates, read-out: MIC Range): 0.015 to 0.5 µg/mL (≈ 0.036 to 1.2 µM) | MIC50 [2]: 0.03 µg/mL (≈ 0.0721 µM) | MIC90 [2]: 0.06 µg/mL (≈ 0.144 µM) | MIC ([2]; M. catarrhalis, 18 isolates, read-out: MIC Range): 0.015 to 0.25 µg/mL (≈ 0.036 to 0.6 µM) | MIC [3]: 0.12 to 0.25 µg/mL (≈ 0.288 to 0.6 µM) | MIC ([4]; read-out: MIC Range): 0.25 to 1 µg/mL (≈ 0.6 to 2.4 µM) | MIC50 ([4]; E. faecium (CiproS), 16 isolates, read-out: MIC50): 0.5 µg/mL (≈ 1.2 µM) | MIC90 ([4]; E. faecium (CiproS), 16 isolates, read-out: MIC90): 1 µg/mL (≈ 2.4 µM) | MIC ([5]; read-out: MIC Range): 1 to 16 µg/mL (≈ 2.4 to 38.4 µM) | MIC50 ([5]; S. epidermidis (CiproR), 11 isolates, read-out: MIC50): 4 µg/mL (≈ 9.61 µM) | MIC90 ([5]; S. epidermidis (CiproR), 11 isolates, read-out: MIC90): 16 µg/mL (≈ 38.4 µM) | MIC ([6]; read-out: MIC Range): 0.25 to 4 µg/mL (≈ 0.6 to 9.61 µM) | MIC50 ([6]; S. aureus (CiproR), 25 isolates, read-out: MIC50): 2 µg/mL (≈ 4.8 µM) | MIC90 ([6]; S. aureus (CiproR), 25 isolates, read-out: MIC90): 2 µg/mL (≈ 4.8 µM) | MIC90 [7]: 0.5 µg/mL (≈ 1.2 µM) | MIC ([7]; read-out: MIC Range): 0.12 to 1 µg/mL (≈ 0.288 to 2.4 µM) | MIC50 ([7]; B. fragilis, 18 isolates, read-out: MIC50): 0.25 µg/mL (≈ 0.6 µM) | MIC50 ([8]; read-out: MIC50): 0.25 µg/mL (≈ 0.6 µM) | MIC90 ([8]; read-out: MIC90): 2 µg/mL (≈ 4.8 µM) | MIC ([8]; read-out: MIC Range): 0.03 to 2 µg/mL (≈ 0.0721 to 4.8 µM) | MIC90 [9]: 0.03 µg/mL (≈ 0.0721 µM) | MIC50 ([9]; H. influenzae, 18 isolates, read-out: MIC50): 0.015 µg/mL (≈ 0.036 µM) | MIC ([9]; H. influenzae, 18 isolates, read-out: MIC Range): 0.008 to 0.06 µg/mL (≈ 0.0192 to 0.144 µM) | MIC90 [10]: 0.06 µg/mL (≈ 0.144 µM) | MIC50 ([10]; S. epidermidis (CiproS), 23 isolates, read-out: MIC50): 0.06 µg/mL (≈ 0.144 µM) | MIC ([10]; S. epidermidis (CiproS), 23 isolates, read-out: MIC Range): 0.015 to 0.06 µg/mL (≈ 0.036 to 0.144 µM) | MIC [11]: 0.015 to 0.06 µg/mL (≈ 0.036 to 0.144 µM) | MIC ([12]; read-out: MIC Range): 0.25 to 1 µg/mL (≈ 0.6 to 2.4 µM) | MIC50 ([12]; E. faecalis (VanS), 17 isolates, read-out: MIC50): 0.5 µg/mL (≈ 1.2 µM) | MIC90 ([12]; E. faecalis (VanS), 17 isolates, read-out: MIC90): 1 µg/mL (≈ 2.4 µM) | MIC50 ([13]; read-out: MIC50): 0.5 µg/mL (≈ 1.2 µM) | MIC90 ([13]; read-out: MIC90): 2 µg/mL (≈ 4.8 µM) | MIC ([13]; read-out: MIC Range): 0.12 to 4 µg/mL (≈ 0.288 to 9.61 µM) | MIC90 [14]: 0.25 µg/mL (≈ 0.6 µM) | MIC50 ([14]; S. pyogenes, 21 isolates, read-out: MIC50): 0.12 µg/mL (≈ 0.288 µM) | MIC ([14]; S. pyogenes, 21 isolates, read-out: MIC Range): 0.06 to 1 µg/mL (≈ 0.144 to 2.4 µM) | MIC [15]: 0.03 to 1 µg/mL (≈ 0.0721 to 2.4 µM) | MIC50 ([15]; read-out: MIC50): 0.06 µg/mL (≈ 0.144 µM) | MIC90 ([15]; read-out: MIC90): 0.12 µg/mL (≈ 0.288 µM) | MIC [16]: 0.015 to 0.03 µg/mL (≈ 0.036 to 0.0721 µM) | MIC50 ([16]; read-out: MIC50): 0.03 µg/mL (≈ 0.0721 µM) | MIC90 ([16]; read-out: MIC90): 0.03 µg/mL (≈ 0.0721 µM) | MIC50 ([17]; read-out: MIC50): 1 µg/mL (≈ 2.4 µM) | MIC90 ([17]; read-out: MIC90): 1 µg/mL (≈ 2.4 µM) | MIC ([17]; read-out: MIC Range): 0.06 to 32 µg/mL (≈ 0.144 to 76.9 µM) | MIC ([18]; read-out: MIC Range): 0.25 to 4 µg/mL (≈ 0.6 to 9.61 µM) | MIC50 ([18]; E. faecium (VanS), 11 isolates, read-out: MIC50): 2 µg/mL (≈ 4.8 µM) | MIC90 ([18]; E. faecium (VanS), 11 isolates, read-out: MIC90): 2 µg/mL (≈ 4.8 µM) | MIC90 [19]: > 128 µg/mL | MIC50 ([19]; P. aeruginosa (CiproR), 20 isolates, read-out: MIC50): > 128 µg/mL | MIC90 [20]: 0.06 µg/mL (≈ 0.144 µM) | MIC ([20]; read-out: MIC Range): 0.015 to 0.12 µg/mL (≈ 0.036 to 0.288 µM) | MIC50 ([20]; N. gonorrhoeae, 12 isolates, read-out: MIC50): 0.015 µg/mL (≈ 0.036 µM) | MIC [21]: 0.5 to 1 µg/mL (≈ 1.2 to 2.4 µM) | MIC90 [22]: 0.25 µg/mL (≈ 0.6 µM) | MIC ([22]; read-out: MIC Range): 0.06 to 0.25 µg/mL (≈ 0.144 to 0.6 µM) | MIC50 ([22]; S. pneumoniae (PenR), 25 isolates, read-out: MIC50): 0.25 µg/mL (≈ 0.6 µM) | MIC90 [23]: 0.5 µg/mL (≈ 1.2 µM) | MIC ([23]; read-out: MIC Range): 0.12 to 0.5 µg/mL (≈ 0.288 to 1.2 µM) | MIC50 ([23]; S. pneumoniae (PenS), 20 isolates, read-out: MIC50): 0.5 µg/mL (≈ 1.2 µM) | MIC90 [24]: 0.5 µg/mL (≈ 1.2 µM) | MIC ([24]; read-out: MIC Range): 0.25 to 0.5 µg/mL (≈ 0.6 to 1.2 µM) | MIC50 ([24]; P. mirabilis, 20 isolates, read-out: MIC50): 0.25 µg/mL (≈ 0.6 µM) | MIC50 [25]: 0.03 µg/mL (≈ 0.0721 µM) | MIC90 [25]: 0.03 µg/mL (≈ 0.0721 µM) | MIC ([25]; S. aureus (CiproS), 21 isolates, read-out: MIC Range): 0.008 to 0.03 µg/mL (≈ 0.0192 to 0.0721 µM) | MIC50 [26]: 0.12 µg/mL (≈ 0.288 µM) | MIC90 [26]: 0.25 µg/mL (≈ 0.6 µM) | MIC ([26]; read-out: MIC Range): 0.12 to 0.25 µg/mL (≈ 0.288 to 0.6 µM) | MIC [27]: 2 to 32 µg/mL (≈ 4.8 to 76.9 µM) | MIC50 ([28]; read-out: MIC50): 32 µg/mL (≈ 76.9 µM) | MIC90 ([28]; read-out: MIC90): 64 µg/mL (≈ 154 µM) | MIC ([28]; read-out: MIC Range): 8 to 128 µg/mL (≈ 19.2 to 307 µM) | MIC90 ([29]; Klebsiella): 0.25 µg/mL (≈ 0.6 µM) | MIC50 ([29]; Klebsiella spp., 29 isolates, read-out: MIC50): 0.12 µg/mL (≈ 0.288 µM) | MIC ([29]; Klebsiella spp., 29 isolates, read-out: MIC Range): 0.015 to 0.5 µg/mL (≈ 0.036 to 1.2 µM)
